Results on 14 molecules are retold here after ChEMBL document CHEMBL5257038, “Active Natural Product Scaffolds against Trypanosomatid Parasites: A Review” (J Nat Prod, 2018).

In data set [1] the test system is Leishmania donovani. The data set is described as follows: Antileishmanial activity against amastigote form of Leishmania donovani assessed as parasite growth inhibition. The data set is classed as functional, organism-based.
Data set [2] concerns Trypanosoma cruzi. The experiment in a line: Antitrypanosomal activity against intracellular Trypanosoma cruzi amastigote assessed as reduction in parasite growth. The data set is classed as functional, organism-based.
A short description of data set [3]: Selectivity index, ratio of IC50 for cytotoxicity against African green monkey Vero cells to IC50 for antitrypanosomal activity against Trypanosoma cruzi amastigote. In kind it is toxicity, cell-based. The note with it: read-out: Ratio IC50.
Data set [4] in a line: Selectivity index, ratio of IC50 for cytotoxicity against African green monkey Vero cells to IC50 for antileishmanial activity against amastigote form of Leishmania donovani. In kind it is toxicity, cell-based. The note with it: read-out: Ratio IC50.
Data set [5] concerns Trypanosoma brucei brucei. The experiment in a line: Antitrypanosomal activity against bloodstream form of Trypanosoma brucei brucei assessed as reduction in parasite growth. In kind it is functional, organism-based.
The nature of data set [6]: Selectivity index, ratio of CC50 for cytotoxicity against HEK293T cells to EC50 for antitrypanosomal activity against bloodstream form of Trypanosoma brucei brucei. The data set is classed as toxicity, cell-based. As to conditions: human, read-out: Ratio CC50/EC50.
A short description of data set [7]: Selectivity index, ratio of CC50 for cytotoxicity against human HepG2 cells to EC50 for antitrypanosomal activity against bloodstream form of Trypanosoma brucei brucei. The data set is classed as toxicity, cell-based. The note with it: read-out: Ratio CC50/EC50.
Data set [8] has as its system Trypanosoma cruzi (intracellular amastigotes). The experiment in a line: Antiparasitic activity against Trypanosoma cruzi intracellular amastigotes assessed as reduction in cell viability at 50 uM relative to control.
The test system is the same in data set [9]. Described as above. This is another data set of the same source.
The test system of data set [10] is Leishmania donovani. The experiment in a line: Antileishmanial activity against Leishmania donovani intracellular amastigotes assessed as parasite growth inhibition. The data set is classed as functional, organism-based.
Data set [11] concerns Trypanosoma cruzi. The experiment in a line: Antitrypanosomal activity against epimastigote form of Trypanosoma cruzi assessed as reduction in parasite growth. In kind it is functional, organism-based.
Another data set concerns Leishmania major. The data set is described as follows: Antileishmanial activity against Leishmania major promastigotes assessed as parasite growth inhibition. The data set is classed as functional, organism-based.
Data set [12] concerns Trypanosoma brucei brucei. The experiment in a line: Antitrypanosomal activity against Trypanosoma brucei brucei. The data set is classed as functional, organism-based.
A short description of data set [13]: Selectivity index, ratio of EC50 for cytotoxicity against African green monkey Vero cells to EC50 for antitrypanosomal activity against Trypanosoma brucei brucei. As to conditions: read-out: Ratio EC50. In kind it is toxicity, cell-based.
Data set [14] can be described thus: Selectivity index, ratio of EC50 for cytotoxicity against African green monkey Vero cells to EC50 for antitrypanosomal activity against epimastigote form of Trypanosoma cruzi. The data set is classed as toxicity, cell-based. As to conditions: read-out: Ratio EC50.
Data set [15] is described as follows: Selectivity index, ratio of EC50 for cytotoxicity against African green monkey Vero cells to EC50 for antileishmanial activity against Leishmania major promastigotes. In kind it is toxicity, cell-based. As to conditions: read-out: Ratio EC50.
A further data set concerns Leishmania mexicana. The data set is described as follows: Antileishmanial activity against Leishmania mexicana promastigotes assessed as parasite growth inhibition. In kind it is functional, organism-based.
The subject of data set [16] is Leishmania amazonensis. The data set is described as follows: Antileishmanial activity against Leishmania amazonensis promastigotes assessed as parasite growth inhibition. The data set is classed as functional, organism-based.
Data set [17] concerns Trypanosoma cruzi. The experiment in a line: In vivo antitrypanosomal activity against Trypanosoma cruzi infected in mouse assessed as fold reduction in parasitemia measured upto 30 days. The data set is classed as functional. As to conditions: time <= 30 day.
In data set [18] the test system is Trypanosoma cruzi. The data set is described as follows: In vivo antitrypanosomal activity against Trypanosoma cruzi infected in mouse assessed as survival rate measured upto 30 days relative to control. The data set is classed as functional. The note with it: time <= 30 day.
For data set [19], the system named is Trypanosoma brucei. The experiment in a line: Antitrypanosomal activity against Trypanosoma brucei. The data set is classed as functional, organism-based.
Data set [20] concerns Leishmania amazonensis. The data set is described as follows: Antileishmanial activity against Leishmania amazonensis intracellular amastigotes assessed as parasite growth inhibition. The data set is classed as functional, organism-based.
Data set [21] can be described thus: Selectivity index, ratio of CC50 for cytotoxicity against mouse J774.G8 cells to IC50 for antileishmanial activity against Leishmania amazonensis promastigotes. In kind it is toxicity, cell-based. The note with it: read-out: Ratio CC50/IC50.
Data set [22] relates to Trypanosoma brucei rhodesiense. The experiment in a line: Antitrypanosomal activity against bloodstream form of Trypanosoma brucei rhodesiense assessed as parasite growth inhibition. In kind it is functional, organism-based.
Data set [23] in a line: Selectivity index, ratio of CC50 for cytotoxicity against rat L6 cells to IC50 for antitrypanosomal activity against bloodstream form of Trypanosoma brucei rhodesiense. In kind it is toxicity, cell-based. As to conditions: read-out: Ratio CC50/IC50.
Data set [24] is described as follows: Selectivity index, ratio of CC50 for cytotoxicity against rat L6 cells to IC50 for […] activity against amastigote form of Leishmania donovani. In kind it is toxicity, cell-based. The note with it: read-out: Ratio CC50/IC50.
The nature of data set [25]: Selectivity index, ratio of IC50 for cytotoxicity against rat L6 cells to IC50 for antitrypanosomal activity against bloodstream form of Trypanosoma brucei rhodesiense. In kind it is toxicity, cell-based. The note with it: read-out: Ratio IC50.
Data set [26] relates to Plasmodium berghei. The data set is described as follows: In vivo antimalarial activity against GFP-transfected Plasmodium berghei ANKA infected in NMRI mouse assessed as reduction in parasitemia at 50 mg/kg/day, ip administered for 4 consecutive days relative to control. In kind it is functional.
For data set [27], the system named is Plasmodium berghei. The experiment in a line: In vivo antimalarial activity against GFP-transfected Plasmodium berghei ANKA infected in NMRI mouse assessed as reduction of parasitaemia at 100 mg/kg/day, po for 4 days relative to control. The data set is classed as functional. The note with it: 96 h, time 4 day.
The test system of data set [28] is Leishmania amazonensis. The data set is described as follows: Antileishmanial activity against Leishmania amazonensis amastigotes assessed as parasite growth inhibition. In kind it is functional, organism-based.
Data set [29] has as its system Trypanosoma brucei. The experiment in a line: Antitrypanosomal activity against bloodstream form of Trypanosoma brucei assessed as parasite growth inhibition. In kind it is functional, organism-based.
Data set [30] has as its system Trypanosoma brucei. The data set is described as follows: In vivo antitrypanosomal activity against Trypanosoma brucei infected in mouse assessed as cured animal rate at 10 mg/kg administered once daily for 7 days relative to control. In kind it is functional. As to conditions: time 7 day.
Data set [31] is described as follows: Inhibition of Trypanosoma brucei CLK1.
Another data set deals with Leishmania infantum. The data set is described as follows: Antileishmanial activity against amastigote stage of Leishmania infantum. In kind it is functional, organism-based.
Data set [32] can be described thus: Selectivity index, ratio of IC50 for cytotoxicity against human MRC5 cells to IC50 for antitrypanosomal activity against bloodstream form of Trypanosoma brucei. The data set is classed as toxicity, cell-based. The note with it: read-out: Ratio IC50.
The nature of data set [33]: Selectivity index, ratio of IC50 for cytotoxicity against human MRC5 cells to IC50 for antitrypanosomal activity against intracellular Trypanosoma cruzi amastigote. As to conditions: read-out: Ratio IC50. In kind it is toxicity, cell-based.
The nature of data set [34]: Selectivity index, ratio of IC50 for cytotoxicity against human MRC5 cells to IC50 for antileishmanial activity against amastigote stage of Leishmania infantum. In kind it is toxicity, cell-based. As to conditions: read-out: Ratio IC50.
In data set [35] the test system is Trypanosoma cruzi. The experiment in a line: Antitrypanosomal activity against Trypanosoma cruzi amastigote. In kind it is functional, organism-based. The note with it: Trypanosoma cruzi.
In data set [36] the test system is Trypanosoma brucei rhodesiense. The experiment in a line: Antitrypanosomal activity against Trypanosoma brucei rhodesiense bloodstream form.
Data set [37] deals with Trypanosoma cruzi. The data set is described as follows: Antitrypanosomal activity against trypomastigote form of Trypanosoma cruzi assessed as reduction in parasite growth. In kind it is functional, organism-based.
Data set [38] has as its system Trypanosoma cruzi. The data set is described as follows: In vivo antitrypanosomal activity against Trypanosoma cruzi infected in mouse assessed as survival rate measured upto 50 days relative to control. The data set is classed as functional. As to conditions: time <= 50 day.

Consider `C/C1=C/C(=O)O[C@H](C(C)(C)C)CCC[C@H](O)CCC[C@H](O)CCC[C@H](O)CCC[C@@H](O)C[C@@H](O)C[C@H](O)CCC[C@@H](O)CCC[C@@H](O)C[C@@H](O)CCCCC1`, for which the EC50 (commonly the concentration needed to bring the measured effect to its halfway point) in the data set on Leishmania donovani [1] amounted to 3 µM; in the data set with Trypanosoma cruzi [2], 6.5 µM. For the same molecule, the selectivity ratio in [3] amounted to 2; in data set [4], 1.
In the case of `C=C1CO[C@H]2/C=C(\C)CC[C@@H]3O[C@@]3(C)CC/C=C(\C)CC[C@@]12O`, the half-maximal effective concentration (EC50) in data set [5] was determined as 5.3 µM. Besides, the selectivity ratio in data set [6] and in [7] was greater than 20 in each case. In addition, the Activity in data set [8] and in data set [9] was 15.2% throughout.
In the case of `C=C(C)[C@H]1[C@H]2[C@@H](OC(C)=O)C[C@@H](C)[C@@H]3C(OC)C=C(C)[C@@]213` (stereo not given in full), the concentration giving a half-maximal response (EC50) with Leishmania donovani [10] stood at 5 µM.
As to `CCOC1C[C@H](CCCCOCc2ccccc2)O[C@H](Cn2cc([C@@H]3CCC[C@H](CCCCOCc4ccccc4)O3)nn2)C1` (stereo not given in full), the concentration giving a half-maximal response (EC50) in the data set with Trypanosoma cruzi [11] stood at 12.7 µM; in the data set on Leishmania major it was 15.3 µM; in data set [12] it was 5.1 µM. The selectivity ratio in data set [13] stood at 100; in [14], 39; in data set [15], 33.
On to `C=C1C(=O)O[C@@H]2[C@H]1CC[C@H](C)[C@@H]1CCC(=O)O[C@@]21C`, for which the EC50 was 2.3 µM in the data set on Trypanosoma cruzi [11], 3.4 µM in the data set with Trypanosoma cruzi [2], 4.5 µM in the data set with Leishmania mexicana and 5.7 µM in the data set on Leishmania amazonensis [16]. The “fold change (FC)” value in the data set on Trypanosoma cruzi [17] is recorded as 2. In the data set on Trypanosoma cruzi [18], the Survival is 20%.
In turn, `C/C=C/[C@]1(C)C[C@@](/C=C(\C)C[C@@H](CC)CC/C=C/CC)(CC)OO1` came in with an EC50 in the data set with Trypanosoma brucei [19] of 5 µM.
As to `C=C1CC[C@@H](OC(C)=O)[C@H]2CC=C3[C@](C)(CC[C@]3(O)C(C)C)C[C@]12O`, the EC50 stood at 5.5 µM with Leishmania amazonensis [16] and 18 µM in the data set on Leishmania amazonensis [20]. Moreover, the selectivity ratio in data set [21] was 93.
With `NC1=N[C@]2([C@H](O)N1)[C@@H](Cl)[C@H](CCl)[C@H]1CN3C(=O)c4cc(Br)c(Br)n4[C@@H]4NC(N)=N[C@@]43[C@@H]12`, the EC50 in data set [22] is 0.8 µM; with Leishmania donovani [1], 1.9 µM; in the data set with Trypanosoma cruzi [2], 120 µM. Further, the values for the selectivity ratio in data set [23] and in data set [24] were 10 and 4, respectively.
As for `O=C(O)c1ccc2c(n1)C(=O)C1=C(C2=O)S(=O)(=O)CCN1` [ACIDIATHIAZONE A], the concentration giving a half-maximal response (EC50) in data set [22] was 3.1 µM. Moreover, in data set [25], the selectivity ratio was found to be 50. Further, in the data set with Plasmodium berghei [26], the inhibition in vivo (usually the percentage by which the read-out fell short of the control) at 50 mg/kg/day was 85%. Besides, the inhibition in vivo at 100 mg/kg/day in the data set on Plasmodium berghei [27] was 45%.
For `CC(C)[C@@H](C)/C=C/[C@@H](C)[C@H]1CC[C@@H]2[C@]1(C)CC[C@H]1[C@]23C=C[C@]2(C[C@@H](O)CC[C@]12C)OO3` [ERGOSTEROL PEROXIDE], the figures for the concentration for a half-maximal effect (EC50) in the data set with Trypanosoma cruzi [11], in the data set on Leishmania amazonensis [16] and in the data set on Leishmania amazonensis [28] were 16.8 µM, 13.9 µM and 4 µM, respectively.
For the molecule `COc1cc(O)c2c(c1)[C@H]1O[C@@H]1C[C@H](O)[C@H](O)C(=O)/C=C\C[C@H](C)OC2=O` [HYPOTHEMYCIN], the concentration for a half-maximal effect (EC50) in the data set with Trypanosoma brucei [29] turned out to be 0.17 µM. In the data set on Trypanosoma brucei [30], the Activity was determined as 33%. For the same molecule, the IC50 (in general, the concentration that gives 50% inhibition) in data set [31] is 0.15 µM.
Turning to `COc1c(O)cc2oc3cc(O)c(CC=C(C)C)c(O)c3c(=O)c2c1CC=C(C)C` [MANGOSTIN], the half-maximal effective concentration (EC50) with Trypanosoma cruzi [2] stood at 8.9 µM; in the data set with Trypanosoma brucei [29] it was 7.9 µM; in the data set on Leishmania infantum, 8 µM. The selectivity ratio in data set [32] is 0.95; in [33] it was 0.84; in [34], 0.93.
Consider `Cn1c2nc3ccccc3c-2cc2ccccc21` [NEOCRYPTOLEPINE], for which the 50% effective concentration (EC50) in the data set on Leishmania donovani [1] worked out at 49.5 µM; in the data set with Trypanosoma cruzi [35], 2 µM; in [36] it was 2.2 µM.
With `C=C1C(=O)O[C@@H]2[C@H]1CC[C@H](C)[C@]1(CCC(=O)O1)[C@@]2(C)O` [PSILOSTACHYIN A], the EC50 in the data set on Trypanosoma cruzi [11] came out at 4.3 µM; with Trypanosoma cruzi [37], 12.5 µM; with Leishmania mexicana, 0.42 µM. Further, in the data set on Trypanosoma cruzi [17], the “fold change (FC)” value turned out to be 1.5. Moreover, in the data set on Trypanosoma cruzi [38], the Survival is listed as 100%.
